# Results taken from patent publication US10159268B2, “Reduced sodium food products” (GENERAL MILLS, INC., priority 2013, dated 2018).
# How the values were obtained:
# [1] = Na-solution DAP test: trained panel rates saltiness of compounds in sodium solution; format: in vivo; set-up: key: DAP score; >3.1 indicates saltiness or salt enhancement; conditions: single compound in sodium solution; best DAP score of tested concentrations 0.1, 1 and 10 ppm; DAP score greater than 3.1 indicates saltiness or salt enhancement
# Method: (§1) Briefly, each individual tested compound was placed in water and in sodium solution to test saltiness and saltiness enhancement potential. Tests in water were executed in a compound concentration of 10 ppm. Tests in sodium solution were executed in compound concentrations of 0.1, 1 and 10 ppm. Two control sodium solutions with known organoleptic salt intensities were provided as references for each test. The test for individual compounds was also conducted using simple broth instead of sodium solution. A number of compound combinations identified from the Na-solution DAP test were used for the broth DAP test. Tests were executed with a trained panel of 9-12 assessors. For Na-solution DAP tests, a DAP score of greater than 3.1 indicates saltiness or salt enhancement. The DAP score can be correlated with a sodium reduction potential by subtracting 3.1 from the DAP score. […] For broth DAP tests, a DAP score of greater than 7.6 indicates saltiness or salt enhancement. The DAP score can be correlated with a sodium reduction potential by subtracting 7.6 from the DAP score.
# [2] = Broth DAP test: trained panel rates saltiness of compounds in simple broth; format: in vivo; set-up: key: DAP score; >7.6 indicates saltiness or salt enhancement in broth; conditions: single compound in simple broth; best DAP score of tested concentrations 0.1, 1 and 10 ppm; DAP score greater than 7.6 indicates saltiness or salt enhancement
# Method: as §1
Molecule,DAP in Na-Sol. [1],DAP in Broth [2]
"COc1c(OC)c(OC)c2c(c1OC)c(=O)c1ccccc1n2C [Compound 23, Melicopicine]",2.9,8.3
"O=C(/C=C/C=C/c1ccc2c(c1)OCO2)N1CCCCC1 [Compound 18, Piperine]",3.8,8.1
C=CC(C)(O)CC/C=C(\C)C(=O)OC1C(OCC2OC(OC(=O)C34CCC(C)(C)CC3C3=CCC5C6(C)CCC(OC7OC(COC8OCC(O)C(O)C8OC8OCC(O)C(O)C8O)C(O)C(O)C7O)C(C)(C)C6CCC5(C)C3(C)CC4O)C(OC3OC(C)C(OC4OCC(O)C(OC5OCC(O)C(O)C5O)C4O)C(O)C3O)C(OC(=O)/C(C)=C/CCC(C)(O)C=C)C2O)OC(C)C(O)C1O (stereo not drawn) [Compound 35],3.7,8.1
"CCC(O)CC(=O)CCc1ccccc1 (stereo not drawn) [Compound 20, a 1-Ph-5-OH-3-heptanone]",4,–
"C=CC(C)(O)CC[C@@]1(C)C2=C([C@H](OC(C)=O)[C@H](OC(C)=O)[C@H]1C)C(C)(C)CCC2 (stereo partly drawn) [Compound 29, Vitetrifolin D]",3.5,8.0
"CC(=O)OC1CCC2(C)C(COc3ccc4ccc(=O)oc4c3)C(C)(O)CCC2C1(C)C (stereo not drawn) [Compound 66, terpenoid coumarins]",3.2,7.8
Brevifolin [Compound 53],3.7,8.5
"COC1CC(OC2CCC3(C=O)C(CCC4C3CCC3(C)C(C5=CC(=O)OC5)CCC43O)C2)OC(C)C1OC1OC(CO)C(O)C(O)C1O (stereo not drawn) [Compound 76, Apobioside]",3.2,8.0
"a pentadecatrienyl-1,3-benzenediol [Compound 10]",3.9,7.9
"CC1(C)CC2C1CCC1(C)CC2(O)CCC1O (stereo not drawn) [Compound 56, Senecrassidiol]",4,7.7
"C[C@]12CC[C@H](O)C[C@H]1CC[C@@H]1[C@@H]2CC[C@]2(C)[C@@H](C3=CC(=O)OC3)CC[C@]12O [Compound 73, Digitoxigenin]",3.5,8.0
"COc1c(CC=C(C)C)c(=O)n(C)c2c(OC)cccc12 [Compound 25, O-Methylglycosolone]",3.9,–
"COc1cc(O)c(C(/C=C/CC(O)CCc2ccc(O)cc2)c2ccc(O)cc2)c2c1C(=O)CC(c1ccc(O)cc1)O2 (stereo not drawn) [Compound 50, Epicalyxin C]",4,–
"COc1c2ccoc2cc2oc(=O)ccc12 [Compound 62, Bergapten]",3.9,8.0
"COc1cc2c(c(OC)c1OC)-c1c(cc(OC)c(OC)c1OC)C[C@H](C)[C@H](C)C2 [Compound 45, Schisandrin A, Deoxyschizandrin]",3.5,8.2
"COc1cc(C2c3cc4c(cc3CC3COC(=O)C32)OCO4)cc(OC)c1OC (stereo not drawn) [Compound 59, Isoanthricin]",3.3,7.9
"CCCCCC(CC(CCc1ccc(O)c(OC)c1)OC(C)=O)OC(C)=O (stereo not drawn) [Compound 3, [6]-Gingerdiacetate]",4.1,8.8
"C=CCCCCCCCCCCC[C@H](O)C[C@H](O)CO [Compound 82, 16-Heptadecene-1,2,4-triol; Avocadene]",3.8,8.3
"O=C(O)/C=C/c1ccc(O)c2c1C(C(=O)OC(Cc1ccc(O)c(O)c1)C(=O)O)C(c1ccc(O)c(O)c1)O2 (stereo not drawn) [Compound 40, a 3-benzofurancarboxylic ester]",3.5,7.8
"CCCCC/C=C\CCCCCCc1cc(=O)c2ccccc2n1C [Compound 17, Evocarpine]",3.6,8.2
"COc1cc(CC(C)C(C)Cc2ccc(O)c(OC)c2)ccc1O (stereo not drawn) [Compound 49, Dihydrogualaretic acid]",3.6,8.2
"CC/C=C\C/C=C\C/C=C\CCCCCCCC(=O)O [Compound 89, Linolenic acid]",3.7,7.6
CC(=O)OC1C(O)COC(OC2C(O)C(C)OC(OC(C)(CCC=C(C)C)C3C(O)CC4(C)C3CCC3C5(C)CCC(OC6OCC(O)C(O)C6O)C(C)(C)C5CCC34C)C2O)C1O (stereo not drawn) [Compound 38],3.9,8.1
"COc1c2ccoc2c(OCC=C(C)C)c2oc(=O)ccc12 [Compound 65, Phellopterin]",3.3,7.9
"COc1cc2c(c(OC)c1OC)-c1c(cc3c(c1OC)OCO3)C[C@H](C)[C@@](C)(O)C2 [Compound 44, Schizandrol B; Gomisin A]",3.8,8.6
"C=CCCCCCCC(C(=O)O)C(O)CC(=O)O (stereo not drawn) [Compound 81, a 2-octenyl-3-hydroxy-1,5-pentanedioic acid]",3.2,7.8

Molecule,DAP in Na-Sol. [1],DAP in Broth [2]
"CCCCCCCC(=O)CCc1ccc(O)c(OC)c1 [Compound 7, [6]-Paradol or [6]-Gingerone]",3.7,–
"CCCCC/C=C/C=C/C(O)CCCCCCCC(=O)O (stereo not drawn) [Compound 88, Dimorphecolic acid]",3.2,8.0
CC1CCC2(OC1)OC1CC3C4CCC5CC(OC6OC(CO)C(OC7OC(CO)C(O)C(OC8OC(CO)C(O)C(OC9OCC(O)C(O)C9O)C8O)C7O)C(OC7OCC(O)C(O)C7O)C6O)CCC5(C)C4CC(=O)C3(C)C1C2C (stereo not drawn) [Compound 37],3.7,8.1
"COc1c2c(cc3oc(=O)ccc13)OC(C)(C)C=C2 [Compound 27, Xanthoxyletin]",3.4,–
"CCCCCCC[C@H](O)CC(=O)CCc1ccc(O)c(OC)c1 [Compound 9, 8-Gingerol]",3.8,–
"C[C@H]1[C@H](C)CC[C@]2(C(=O)O)CC[C@]3(C)C(=CC[C@@H]4[C@@]5(C)CC[C@H](O)C(C)(C)[C@@H]5CC[C@]43C)[C@H]12 [Compound 43, Ursolic acid]",3.7,8.0
"C=C1C(=O)O[C@@H]2C[C@@]3(C)CCCC(=C)[C@@H]3C[C@H]12 [Compound 80b, Isoalantolactone]",3.9,–
"CCC=CCC=CC=CC(O)CCCCCCCC(=O)O (stereo not drawn) [Compound 85, 9-hydroxy-10,12,15-Octadecatrienoic acid]",2.9,–
"COc1cc2oc(=O)ccc2c(OC)c1CC=C(C)C [Compound 28, Toddaculin]",3.6,–
"CCCCC/C=C/C(=O)CCc1ccc(O)c(OC)c1 [Compound 4, 6-Shogaol]",3.5,–
"COc1cc(CNC(=O)CCCCCCC(C)C)ccc1O [Compound 21, Dihydrocapsaicin]",4,–
"C[C@@H]1C[C@H]2OC(=O)[C@@]3(C)CCC[C@](C)(C23)[C@@]1(O)CCc1ccoc1 (stereo partly drawn) [Compound 31, Marrubin]",3.2,–
CC(=O)OC1CC(C)C2(CCC3(COC(=O)C3)O2)C2(C)CCCC(C)(C)C12 (stereo not drawn) [Compound 30],3.1,–
"COc1c(CC=C(C)C)c(=O)[nH]c2ccccc12 [Compound 61, Atanine]",3.6,–
"CCCCC[C@H](O)CC(=O)CCc1ccc(O)c(OC)c1 [Compound 5, [6]-Gingerol]",3.6,–
"O=C(/C=C/CC/C=C/c1ccc2c(c1)OCO2)N1CCCCC1 [Compound 14, Pipersintenamide]",3.6,–
"C/C=C1\C(=O)CC2C3CCC4=CC(=O)CC[C@]4(C)C3CCC12C (stereo partly drawn) [Compound 75, (Z)-Guggulsterone]",3.6,–
"CCCCCC(CC(=O)CCc1ccc(O)c(OC)c1)OC (stereo not drawn) [Compound 8, 5-methoxy-[6]-Gingerol]",4,–
"C=C1C(=O)OC2CC3(C)CCCC(C)C3=CC12 (stereo not drawn) [Compound 80a, Alantolactone]",3.9,–
"COc1ccc(-c2c(O)c3c(OC)c4c(cc3oc2=O)OC(C)(C)C=C4)cc1 [Compound 26, Robustic acid]",3.4,–
"O=c1c2ccccc2nc2n1CCc1c-2[nH]c2ccccc12 [Compound 57, Rutaecarpine]",3.1,–
"C=C1C2CCC3C4(C)CCCC(C)(C(=O)O)C4CCC3(C2)C1OC(C)=O (stereo not drawn) [Compound 94, Xylopic acid]",4.2,–
"CCCCCCCCC(=O)CCc1ccc(O)c(OC)c1 [Compound 6, [7]-Paradol]",3.8,–
"C/C(=C\CC/C(C)=C/CC[C@@H]1[C@@]2(C)CCC(=O)C(C)(C)C2CC[C@@]1(C)O)CC/C=C(\C)C(=O)O (stereo partly drawn) [Compound 52, Myrrhanone B]",3.6,–
"C=CC(C)(CC/C=C(\C)CC/C=C(\C)CC/C=C(/C)COC1OC(C)C(O)C(OC2OC(COC3OC(C)C(O)C(O)C3OC(=O)/C(C)=C/C(O)C/C(C)=C/CC/C(C)=C/CCC(C)(C=C)OC3OC(CO)C(O)C(O)C3OC3OC(CO)C(O)C(O)C3O)C(O)C(O)C2O)C1O)OC1OC(CO)C(O)C(O)C1OC1OC(CO)C(O)C(O)C1O (stereo not drawn) [Compound 92, Capsianoside D]",4,–
"C=CC(C)(CC/C=C(\C)CC/C=C(\C)CC/C=C(/C)COC1OC(C)C(O)C(OC2OC(COC3OC(C)C(O)C(O)C3OC(=O)/C(C)=C/CC/C(C)=C/CC/C(C)=C/CCC(C)(C=C)OC3OC(CO)C(O)C(O)C3OC3OC(CO)C(O)C(O)C3O)C(O)C(O)C2O)C1O)OC1OC(CO)C(O)C(O)C1OC1OC(CO)C(O)C(O)C1O (stereo not drawn) [Compound 91, Capsianoside E]",3.7,–
